Measurements reported in patent publication US9085571B2, “Nonpeptide HIV-1 protease inhibitors” (Purdue Research Foundation, priority 2008, dated 2015).
pIC50, pKi: −log10 of the molar value.

Tested on: HIV-1
Assay: Inhibition of HIV-1 (IC50)
Format: cell-based, human immunodeficiency virus type 1
Conditions: Human immunodeficiency virus 1

SMILES | pIC50
COc1ccc(S(=O)(=O)N(CC(C)C)C[C@@H](O)[C@H](Cc2ccccc2)NC(=O)c2cccc(C(=O)N3CCC[C@@H]3c3nc(C)cs3)c2)cc1 | 7.49
COc1ccc(S(=O)(=O)N(CC(C)C)C[C@@H](O)[C@H](Cc2ccccc2)NC(=O)c2cc(C)cc(C(=O)N(C)Cc3nc(C)oc3C)c2)cc1 | 7.52
COc1ccc(S(=O)(=O)N(CC(C)C)C[C@@H](O)[C@H](Cc2ccccc2)NC(=O)c2cccc(C(=O)N(C)Cc3nc(C)co3)c2)cc1 | 7.70

Target: HIV-1 protease (Human immunodeficiency virus type 1 group M subtype B (isolate HXB2) (HIV-1), UniProt P04585)
Assay: Inhibition of HIV proteases (inhibition constants, method of Toth and Marshall)
Format: biochemical
Conditions: not given
From the text: Techniques for measurement of the ability of the compounds herein described to decrease the proteolytic activity of proteases encoded by HIV are well known to those skilled in the relevant art and any one or combination of such techniques can be used to measure the inhibition of protease activity of the compound herein described. One illustrative method is described by Toth and Marshall (Toth & Marshall, Int. J. Pep. Protein Res. (1990), 36, 544-550). The disclosure of the foregoing is incorporated herein in its entirety by reference. In addition, the entirety of the disclosures of each of the publications cited herein are also incorporated herein by reference.

SMILES | pKi
CNc1cc(C(=O)N[C@@H](Cc2ccccc2)[C@H](O)CN(CC(C)C)S(=O)(=O)c2ccc(OC)cc2)cc(C(=O)N(C)Cc2nc(C)oc2C)c1 | 8.30
COc1ccc(S(=O)(=O)N(CC(C)C)C[C@@H](O)[C@H](Cc2ccccc2)NC(=O)c2cc(N)cc(C(=O)N(C)Cc3nc(C)oc3C)c2)cc1 | 7.00
COc1ccc(S(=O)(=O)N(CC(C)C)C[C@@H](O)[C@H](Cc2ccccc2)NC(=O)c2cccc(C(=O)N3CCC[C@@H]3c3nc(C)cs3)c2)cc1 | 8.10 to 10.52
CCCN(C)C(=O)c1cc(OC)cc(C(=O)N[C@@H](Cc2ccccc2)[C@H](O)CN(CC(C)C)S(=O)(=O)c2ccc(OC)cc2)c1 | 7.70
COc1ccc(S(=O)(=O)N(CC(C)C)C[C@@H](O)[C@H](Cc2ccccc2)NC(=O)c2cc(C(=O)N(C)C3CCCCC3)cc(N(C)C(=O)OC(C)(C)C)c2)cc1 | 6.00
CCCN(C)C(=O)c1cc(NC)cc(C(=O)N[C@@H](Cc2ccccc2)[C@H](O)CN(CC(C)C)S(=O)(=O)c2ccc(OC)cc2)c1 | 6.70
CNc1cc(C(=O)N[C@@H](Cc2ccccc2)[C@H](O)CN(CC(C)C)S(=O)(=O)c2ccc(OC)cc2)cc(C(=O)N(C)C2CCCCC2)c1 | 6.70
COCc1coc(CN(C)C(=O)c2cccc(C(=O)N[C@@H](Cc3ccccc3)[C@H](O)CN(CC(C)C)S(=O)(=O)c3ccc(OC)cc3)c2)n1 | 9.52
Cc1nc(CNC(=O)c2cccc(C(=O)N[C@@H](Cc3ccccc3)[C@H](O)CN3C[C@H]4CCCC[C@H]4C[C@H]3C(=O)NC(C)(C)C)c2)c(C)o1 | 7.70
COc1ccc(S(=O)(=O)N(CC(C)C)C[C@@H](O)[C@H](Cc2ccccc2)NC(=O)c2cccc(C(=O)N3CCC[C@H]3c3nc(C)cs3)c2)cc1 | 7.52
COc1ccc(S(=O)(=O)N(CC(C)C)C[C@@H](O)[C@H](Cc2ccccc2)NC(=O)c2ccccc2C(=O)N(C)Cc2nc(C)oc2C)cc1 | 6.22
COc1ccc(S(=O)(=O)N(CC(C)C)C[C@@H](O)[C@H](Cc2ccccc2)NC(=O)c2cncc(C(=O)N(C)Cc3nc(C)oc3C)c2)cc1 | 8.22
CCCNC(=O)c1cc(OC)cc(C(=O)N[C@@H](Cc2ccccc2)[C@H](O)CN(CC(C)C)S(=O)(=O)c2ccc(OC)cc2)c1 | 7.30
CCCNC(=O)c1cc(N)cc(C(=O)N[C@@H](Cc2ccccc2)[C@H](O)CN(CC(C)C)S(=O)(=O)c2ccc(OC)cc2)c1 | 6.40
CCCNC(=O)c1cc(NC)cc(C(=O)N[C@@H](Cc2ccccc2)[C@H](O)CN(CC(C)C)S(=O)(=O)c2ccc(OC)cc2)c1 | 6.52
Cc1nc(CN(C)C(=O)c2cccc(C(=O)N[C@@H](Cc3ccccc3)[C@H](O)CN3C[C@H]4CCCC[C@H]4C[C@H]3C(=O)NC(C)(C)C)c2)c(C)o1 | 8.30
Cc1coc(CN(C)C(=O)c2cccc(C(=O)N[C@@H](Cc3ccccc3)[C@H](O)CN(CC(C)C)S(=O)(=O)c3ccc(CO)cc3)c2)n1 | 9.22
CCCN(CCC)C(=O)c1cccc(C(=O)N[C@@H](Cc2ccccc2)[C@H](O)CN(CC(C)C)S(=O)(=O)c2ccc(OC)cc2)c1 | 7.70
CCCN(CCC)C(=O)c1cccc(C(=O)N[C@@H](Cc2ccccc2)[C@H](O)CN2C[C@H]3CCCC[C@H]3C[C@H]2C(=O)NC(C)(C)C)c1 | 7.00
COc1ccc(S(=O)(=O)N(CC(C)C)C[C@@H](O)[C@H](Cc2ccccc2)NC(=O)c2ccc(C(=O)N(C)Cc3nc(C)oc3C)cc2)cc1 | 7.15
COc1ccc(S(=O)(=O)N(CC(C)C)C[C@@H](O)[C@H](Cc2ccccc2)NC(=O)c2cccc(C(=O)N(C)Cc3oc(C)nc3C)c2)cc1 | 9.22
COc1ccc(S(=O)(=O)N(CC(C)C)C[C@@H](O)[C@H](Cc2ccccc2)NC(=O)c2cccc(C(=O)N(C)Cc3csc(C)n3)c2)cc1 | 10.00
COc1ccc(S(=O)(=O)N(CC(C)C)C[C@@H](O)[C@H](Cc2ccccc2)NC(=O)c2cc(OC)cc(C(=O)N(C)Cc3nc(C)oc3C)c2)cc1 | 9.00
COc1ccc(S(=O)(=O)N(CC(C)C)C[C@@H](O)[C@H](Cc2ccccc2)NC(=O)c2cc(C)cc(C(=O)N(C)Cc3nc(C)oc3C)c2)cc1 | 9.70
COc1ccc(S(=O)(=O)N(CC(C)C)C[C@@H](O)[C@H](Cc2ccccc2)NC(=O)c2cc(OC)cc(C(=O)N(C)C3CCCCC3)c2)cc1 | 7.40
COc1ccc(S(=O)(=O)N(CC(C)C)C[C@@H](O)[C@H](Cc2ccccc2)NC(=O)c2cc(N)cc(C(=O)N(C)C3CCCCC3)c2)cc1 | 6.52
COc1ccc(S(=O)(=O)N(CC(C)C)C[C@@H](O)[C@H](Cc2ccccc2)NC(=O)c2cccc(C(=O)N(C)Cc3nc(C)co3)c2)cc1 | 9.22
CCCN(C)C(=O)c1cc(C(=O)N[C@@H](Cc2ccccc2)[C@H](O)CN(CC(C)C)S(=O)(=O)c2ccc(OC)cc2)cc(N(C)C(=O)OC(C)(C)C)c1 | 6.00
Cc1nc(CN(C)C(=O)c2cccc(C(=O)N[C@@H](Cc3ccccc3)[C@H](O)CN(CC(C)C)S(=O)(=O)c3ccc(N)cc3)c2)c(C)o1 | 8.70
